Measurements as given in patent publication US20050004136A1, “Novel amidoalkyl-piperidine and amidoalkyl-piperazine derivatives useful as neurokinin receptor modulators” (priority 2000, published 2005).

How the values were obtained:
[1] = tested on: serotonin neural pathways; assay: DOI Headshake Model; format: in vivo; parameters: key: Active: A statistically significant decrease in the number of headshakes induced by the administration of DOI in the mice given the test compound relative to the mice given the control was an indication of modulation of the serotonin neural pathways and thus an indication of an active compound; settings: DOI-induced headshakes, mice (NIH Swiss; starred compounds also CD-1); for Number of Headshakes, IP Admin: i.p., doses up to 100 mg/kg; for Number of Headshakes, Oral Admin.: doses up to 40 mg/kg
Method: Male CD-1 or NIH-Swiss mice were fasted overnight. The mice were given control vehicle or test compound by the oral or intraperitoneal (i.p.) routes of administration at doses up to 40 mg/kg orally and up to 100 mg/kg i.p. Administration time was denoted as t0. At each of several selected intervals after t0 (at about 45 min, 1 h, 2 h, 4 h, 6 h, 8 h, 24 h after administration), separate groups of mice were given 1-{2,5-dimethoxy-4-iodophenyl]-2-aminopropane (DOI), a known serotonin receptor type-2A agonist, by the intraperitoneal route of administration route. […] (Separate groups of mice were tested at each time interval.) Peak activity time, denoted as tp, was determined as the time of the greatest reduction in the number of DOI-induced headshakes for mice given the test compound compared to the number of headshakes for the mice given the control, measured at the same time interval.
A statistically significant decrease in the number of headshakes induced by the administration of DOI in the mice given the test compound relative to the mice given the control was an indication of modulation of the serotonin neural pathways and thus an indication of an active compound.
In vivo biological activity was measured for select compounds of the present invention as listed in Table 11, using the procedures outlined above. Starred (*) compounds were tested on both male CD-1 mice and NIH Swiss mice, all other compounds were tested using Swiss NIH mice.

cisplatin induced emesis = assay: Anti-emetic test, cisplatin induced emesis; format: in vivo, shrew; settings: shrews, 20 mg/kg, administered subcutaneously; statistically significant reduction
Method: The effectiveness of a test compound to inhibit emesis in the shrew were determined according to the procedure described in Darmani, N. A. Serotonin 5-HT3 receptor antagonists prevent cisplatin-induced emesis in Cryptosis parva: a new experimental model of emesis. J Neural. Transm. 1998, 105, 1143-1154.

[2] = tested on: Senktide-induced headshake; assay: Reversal of Senktide-induced head shake in mice; format: in vivo; parameters: key: Active = a statistically significant (Mann-Whitney t-test (one-tailed)) reduction in the headshakes produced by senktide (5 mg/kg), in animals dosed with test compound 10 mg/kg po; settings: NIH-Swiss mice, test compound 10 mg/kg po, senktide 5 mg/kg sc 45 min later, 10 min count
Method: The in vivo assay measuring the reversal of Senktide-induced headshake in mice has been previously described in the literature by Sarau, H. M., et al in J. Pharmacol. Exp. Therapeutics (2000), 295 pp 373-381.
Briefly, overnight fasted NIH-Swiss mice weighing 18-21 gms were treated with test compound or vehicle by the oral (gavage) route, at various concentrations. Forty five (45) minutes after administration, the animals are injected subcutaneously (sc) with Senktide at a concentration of 5 mg/kg. Immediately after administration of the Senktide, the animals are randomized and laced into isolated observation chambers and the number of headshakes per recorded over a ten (10) minute period. A decrease in the number of Senktide induced headshakes for test compound treated animals as compared with vehicle treated animals (analysis completed using Mann-Whitney t-test (one tailed)) was taken as an indication of anxiolytic activity for the compound.
Representative compounds of the instant invention were tested for reversal of Senktide-induced headshakes in mice, with results as listed in Table 12.

rats [3] = assay: Elevated Plus Maze (EPM) Test; format: in vivo; parameters: key: Active = statistically significant (Mann Whitney U test p < 0.05) increase in open arm time or open arm entries at 10 mg/kg po; settings: Long-Evans Hooded rats, 10 mg/kg po, one hour after dosing
Method: (§1) Male Long-Evans Hooded rats weighing 180 to 200 grams were purchased from Charles River Inc (Portage MI). The rats were housed in groups of four at an ambient temperature of 21 to 23° C. in a room with an automated 12/12 hour light/dark cycle. The rats had access to water and a commercial rodent food ad libitum. At the time of the experiment the rats weighed 220 to 350 grams.
(§2) The assay was run with test compound or vehicle administered to the animals at time zero. Fifty minutes after administration, the animals were tested in the SMA (Spontaneous Locomotor Activity), which was completed in 10 minutes. Immediately following SMA testing, the rats were moved and tested in the EPM (elevated Plus Maze), which was also completed in ten minutes. Test compounds were suspended in an aqueous vehicle (MC) comprised of 0.5% Methylcellulose and administered p.o.
The elevated plus maze (EPM) is the most widely used animal test of anxiety. The fully quantitative computerized EPM has validity as an anxiety model from the theoretical basis and pharmacological responses. The EPM also has high ecological validity since it studies the spontaneous behavioral patterns in response to interactions with the environment.
The procedure is based on the natural aversion of rodents to explore open and high places, as well as their innate tendency for thigmotaxis. When rats are placed on the elevated-plus maze, they have a normal tendency to remain in the enclosed arms of the maze and avoid venturing into the open arms. Animals treated with typical or atypical anxiolytics show an increase in the percentage of time spent (% Time) and/or the percentage of entries made (% Entries) into the open arms.
The test apparatus used consisted of a black plastic maze with two open arms and two arms with 40 cm high walls (enclosed arms) of equal length (50 cm) extending from the center at right angles, such that arms of similar type were opposite each other. Each plus-maze was elevated approximately 60 cm above the floor. Infrared photo-beams that crossed the entrance of each arm and the center of the maze detected the exploratory activity of an animal in the maze. […]
Anxiolytic activity of a test compound was quantified using two parameters: a) the percent of total time spent by a rat in one of the two open arms of the apparatus (% open arm time) which was calculated as follows: [formula] • and b) the number of times a rat entered the open arms relative to the total entries into all arms and the center area (% open arm entries), calculated as follows: [formula]
Data were analyzed for statistical significance between drug and vehicle-treated groups via one tailed Mann-Whitney T-Test. […]

rats [4] = assay: Spontaneous Locomotor Activity (SMA) Test; format: in vivo; parameters: key: Increase = statistically significant (Mann Whitney U test p < 0.05) increase in horizontal activity and vertical movements indicating lack of sedation or motor impairment at 10 mg/kg po; settings: Long-Evans Hooded rats, 10 mg/kg po, 50 minutes after administration; decrease = sedation
Method: as §1, §2
The test apparatus consisted of a plastic cubicle (40.6 cm, length; 40.6 cm, width; 30.5 cm, height) that was placed in the center of a main frame. Photocell sensors (8 beams from front to back and 8 beams from side to side) were built into the sides of the frame for monitoring horizontal movement. The photocells were located at right angles to each other, projecting horizontal infrared beams of light 5 cm apart and 2 cm above the floor to measure horizontal activity, and 5 cm apart and 14 cm above the floor to measure vertical activity. Rats were divided into groups (N=8 to 12). Test compound or vehicle was administered orally by gavage in a dose volume equivalent to 5 mL/kg. At 50 minutes after administration each rat was placed into a separate plastic cubicle and spontaneous exploratory activity was recorded for 10 minutes. Horizontal and vertical movements of the rats were recorded by counting the number of times the beams of light were interrupted (horizontal and vertical counts). Collection of the data and preliminary data analysis was automated. A drug-induced decrease in spontaneous horizontal or vertical motor activity was regarded as an indication of sedation.
HA data were analyzed for statistical significance between drug and vehicle-treated groups that were administered either the vehicle or each dose of the test compound by a one-way analysis of variance. Then Dunnett's multiple comparison method was used to test for a reduction (p<0.05, 1-tailed) in the average number of HA counts or VM counts in drug-treated groups, compared to a concurrently run vehicle-treated group. If the probability was less than 5% (p<0.05) that a decrease in HA and/or VM in the drug-treated group compared to a concurrently run vehicle-treated group was due to chance, then the dose of the test compound was considered to have sedative activity. Mann-Whitney T-Test is used in cases where the distribution of the data is non-gaussian.

SMILES | Number of Headshakes, IP Admin [1] | Number of Headshakes, Oral Admin. [1] | cisplatin induced emesis in vivo test (reduction in cisplatin induced retching behavior) (cisplatin induced emesis) | Senktide Headshake Assay [2] | Increase % Open Arm Entries (rats [3]) | Increase % Open Arm Time (rats [3]) | SMA Horizontal Activity (rats [4]) | SMA Vertical Movement (rats [4])
O=C(CC1CCN(C(=O)c2cccc(C#Cc3ccccn3)c2)CC1)Nc1ccccc1 [Compound 10, N-phenyl-1-[3-(2-pyridinylethynyl)benzoyl]4-piperdineacetamide] | Active | Active | active | Active | Active | Active | Increase | Increase
O=C(CC1CCN(C(=O)c2ccc(/C=C\c3ccncc3)cc2)CC1)Nc1ccccc1 [Compound 73, N-phenyl-1-[4-[(Z)-2-(4-pyridinyl)ethenyl]benzoyl]-4-piperidineacetamide] | Active | Active | – | – | – | – | – | –
O=C(CC1CCN(C(=O)c2cccc(C#Cc3ccccn3)c2)CC1)Nc1ccc(O)cc1 [Compound 75, N-(4-hydroxyphenyl)-1-[3-(2-pyridinylethynyl)benzoyl]-4-piperidineacetamide] | Active | Active | – | – | Active | Active | Increase | Increase
O=C(CN1CCN(C(=O)c2cccc(C#Cc3ccccn3)c2)CC1)Nc1ccccc1 [Compound 106, N-phenyl-4-[3-(2-pyridinylethynyl)benzoyl]-1-piperazineacetamide] | Active | Active | – | – | – | – | – | –
O=C(CN1CCN(C(=O)c2cccc(NCc3cc(C(F)(F)F)cc(C(F)(F)F)c3)c2)CC1)Nc1ccccc1 [Compound 501, 4-[3-[[[3,5-bis(trifluoromethyl)phenyl]methyl]amino]benzoyl]-N-phenyl-1-piperazineacetamide] | – | Inactive | – | – | – | – | – | –
